In patent publication US7772183B2 (Bristol-Myers Squibb Company, priority 2005, dated 2010):

Tested on: HCV replicon (Renilla luciferase reporter) in HUH-7 cells
Assay: HCV replicon luciferase reporter assay
Format: cell-based, Hepatitis C virus (strain 1b)
Conditions: Huh-7, 96 h, 4 days
Text: An HCV replicon whole cell system was established as described by Lohmann V, Komer F, Koch J, Herian U, Theilmann L, Bartenschlager R., Science 285(5424):110-3 (1999). This system enabled us to evaluate the effects of our HCV Protease compounds on HCV RNA replication. Briefly, using the HCV strain 1b sequence described in the Lohmann paper (Assession number: AJ238799), an HCV cDNA was synthesized by Operon Technologies, Inc. (Alameda, Calif.), and the full-length replicon was then assembled in plasmid pGem9zf(+) (Promega, Madison, Wis.) using standard molecular biology techniques. The replicon consists of (i) the HCV 5′ UTR fused to the first 12 amino acids of the capsid protein, (ii) the neomycin phosphotransferase gene (neo), (iii) the IRES from encephalomyocarditis virus (EMCV), and (iv) HCV NS3 to NS5B genes and the HCV 3′ UTR. […]
As a secondary assay, EC50 determinations from the replicon FRET assay were confirmed in a replicon luciferase reporter assay. […] Following 4 days in a 37° C./5% CO2 incubator, cells were analyzed for Renilla Luciferase activity using the Promega Dual-Glo Luciferase Assay System. […] Plates were read on a Packard TopCount NXT using a luminescence program.
The percentage inhibition was calculated using the formula below: […]
The values were graphed and analyzed using XLfit to obtain the EC50 value.

CC(C)(C)OC(=O)N[C@H]1CCCCC/C=C\[C@@H]2C[C@@]2(C(=O)NS(=O)(=O)C2CC2)NC(=O)[C@@H]2C[C@@H](OC(=O)c3ccc(C#N)cc3)CN2C1=O [Compound 26, 18-(4-cyanobenzoyloxy)-14-tert-butoxycarbonylamino-4-cyclopropylsulfonylaminocarbonyl-2,15-dioxo-3,16-diazatricyclo-[14.3.0.0^4,6]-nonadec-7-ene] gave an EC50 of 4.3 nM.
